Measurements from PMC12055039 (Organic & biomolecular chemistry, 2024).
Like-named read-outs stand apart in the source and are kept apart here.

What was measured:
[1] = Cytotoxicity against HepG2 cells; conditions: human
T. brucei [2] = assay: Antiparasitic screening against T. brucei; type: cell-based; conditions: read-out: T. brucei EC50; mean ± standard error, 3 biological replicates
P. falciparum 3D7 = assay: Antiparasitic screening against P. falciparum 3D7; type: cell-based; conditions: read-out: P. falciparum 3D7 EC50; mean ± standard error, 3 biological replicates
L. amazonensis [3] = assay: Antiparasitic screening against L. amazonensis; type: cell-based; conditions: read-out: L. amazonensis EC50; mean ± standard error, 3 biological replicates
L. amazonensis [4] = conditions: read-out: L. amazonensis EC50; 6/5-spiroindimicins; ref 4b; cited from earlier work
T. brucei [5] = conditions: read-out: EC50 (T. brucei); Phase III candidate for trypanosomiasis; cited from earlier work

C[C@H]1CCC/C=C/[C@@H]2C[C@H](O)C[C@H]2[C@H](O)/C=C/C(=O)O1 [brefeldin A]
CC50 [1]: 0.064 ± 0.0045 µM

COC(=O)c1[nH]cc2c1[C@@]1(CN(C)c3ccccc31)c1[nH]c3ccc(Cl)cc3c1-2 (racemic) [Compound 6, spiroindimicin F]
EC50 (T. brucei [2]): 4 ± 0.2 µM
EC50 (P. falciparum 3D7): 9 ± 0.97 µM
EC50 (L. amazonensis [3]): 9.9 ± 1.2 µM

COC(=O)c1[nH]c(C(=O)OC)c2c1-c1c[nH]c3ccc(Cl)c(c13)[C@@]21C=Nc2ccc(Cl)cc21 [Compound 1, spiroindimicin A]
EC50 (L. amazonensis [4]): 1.3 µM

COC(=O)c1[nH]c(C(=O)OC)c2c1-c1c([nH]c3ccc(Cl)cc13)[C@@]21CN(C)c2ccc(Cl)cc21 (racemic) [Compound 4, spiroindimicin D]
EC50 (T. brucei [2]): 3.4 ± 0.21 µM
EC50 (P. falciparum 3D7): 5.6 ± 0.22 µM
EC50 (L. amazonensis [3]): 7.7 ± 0.23 µM

COC(=O)c1[nH]cc2c1[C@@]1(CN(C)c3ccc(Cl)cc31)c1[nH]c3ccccc3c1-2 (racemic) [Compound 5, spiroindimicin E]
EC50 (T. brucei [2]): 4.4 ± 0.32 µM
EC50 (P. falciparum 3D7): 4.8 ± 0.51 µM
EC50 (L. amazonensis [3]): 9.3 ± 1.7 µM

N-PMB spiroindimicin C [Compound 74]
EC50 (T. brucei [2]): 1.2 ± 0.03 µM
EC50 (P. falciparum 3D7): 3.7 ± 0.35 µM
EC50 (L. amazonensis [3]): > 10 µM

spiroindimicin G [Compound 7]
EC50 (T. brucei [2]): 0.65 ± 0.14 µM
EC50 (P. falciparum 3D7): 7.6 ± 0.47 µM
EC50 (L. amazonensis [3]): 8.1 ± 0.5 µM

COC(=O)c1[nH]cc2c1[C@]1(CN(C)c3ccc(Cl)cc31)c1[nH]c3ccc(Cl)cc3c1-2 (racemic) [Compound 2, spiroindimicin B]
EC50 (T. brucei [2]): 3 ± 0.23 µM
EC50 (P. falciparum 3D7): 3 ± 0.2 µM
EC50 (L. amazonensis [3]): 8 ± 0.49 µM

COC(=O)c1[nH]cc2c1[C@]1(CNc3ccc(Cl)cc31)c1[nH]c3ccc(Cl)cc3c1-2 (racemic) [Compound 3, spiroindimicin C]
EC50 (T. brucei [2]): 13 ± 0.98 µM
EC50 (P. falciparum 3D7): 7.1 ± 0.58 µM
EC50 (L. amazonensis [3]): > 10 µM

CC1(C)OB(O)c2cc(NC(=O)c3ccc(F)cc3C(F)(F)F)ccc21 [acoziborole]
EC50 (T. brucei [5]): 0.6 µM
